Test results taken from US20140178432A1, “PRODUCTION OF DENSE BODIES (DB) FROM HCMV-INFECTED CELLS” (priority 2011, published 2014).
Entries after “also recorded” stand apart in the source; their conditions may differ.

Experiments:
Type in all cases: cell-based, human cytomegalovirus (HCMV)
HCMV strain TB40/E = experiment: Dense Body (DB) production in HUVEC infected with HCMV strain TB40/E, electron microscopy; settings: for virions in the cytoplasm of the treated batch / concentration of DB in the cytoplasm of the infected cells (electron microscope): HUVEC infected with HCMV TB40/E, A: 300 nmol/l, B: 300 nmol/l, C: 3 μmol/l; for concentration of DB in the cytoplasm of the infected cells (electron microscope): control only a few DB; for concentration that led to optimal results (DB production): HUVEC infected with HCMV strain TB40/E
Procedure: (§1) Human foreskin fibroblasts (“human foreskin fibroblasts, HFF”) were added in an amount of 1×10^6 cells per flask in 5 T75-cell culture flasks on the day before the infection. The HCMV strain AD 169 was prepared as a frozen, cell-free virus preparation that was obtained from cells that were present in a late stage of infection. The substances (A), (B), (C), and (D) according to the invention were provided as stock solutions of 50 mmol/l each in DMSO.
(§2) The HFF cells were incubated for one hour with the virus preparation at a m.o.i. (“multiplicity of infection”) of ≧≧1 TCID 50/cell (1:20 dilution). Then, the virus supernatant was removed, and an incubation of the infected cells was carried out with the substances according to the invention at the following concentrations: A: 50 nmol/l; B: 5 nmol/l; C: 500 nmol/l; D: 500 nmol/l.
(§3) The cells were incubated for 5 days, whereby a renewal of the substance-containing medium was performed after the first and fourth days. After the incubation, the infected cells were examined by electron microscope in the formation of DB.
In another experiment, human endothelial cells from the umbilical vein (HUVEC) were infected with the HCMV strain TB40/E, which was isolated from cells in a late stage of infection. The experimental design corresponds to the one shown under 2.1, whereby the incubation of cells was carried out at the following concentrations of the substances according to the invention: A: 300 nmol/l; B: 300 nmol/l: C: 3 μmol/l; D: […].

clinical HCMV isolate = experiment: Dense Body (DB) production in HFF infected with a clinical HCMV isolate, co-cultured with non-infected HFF, electron microscopy; settings: HFF infected with a clinical isolate of HCMV, co-culture with non-infected HFF
Procedure: HFF were infected with a clinical HCMV isolate, which was isolated from cells in a late stage of infection, as further described above under 2.1. The infected HFF were co-cultivated with non-infected HFF in mini-trays (3,000 cells/recess). Three different ratios of infected/non-infected cells were produced: undiluted; 1:2 diluted; 1:4 diluted. The substances according to the invention were incubated with the cells at the following concentrations: A: 300 nmol/l; B: 300 nmol/l; C: 3 μmol/l; D: 30 μmol/l.
After 5 days of incubation at 37° C., the electron-microscopic study was carried out. […] The greater the dilution with non-infected cells, the fewer DB accumulated in the cytoplasm. In the control batch without a substance according to the invention, only very few DB could be identified. Moreover, the ejection of infectious particles from the cell nucleus was prevented in turn by the addition of the substances according to the invention.

HCMV strain AD169 = experiment: Dense Body (DB) production in human foreskin fibroblasts infected with HCMV strain AD169, electron microscopy; settings: for infectious virus particles in the cytoplasm of treated cells / accumulation of DB in the cytoplasm (electron microscope): HFF infected with HCMV AD169, 5 days incubation, A: 50 nmol/l, B: 5 nmol/l, C: 500 nmol/l, D: 500 nmol/l; for infectious virus particles in the cytoplasm of treated cells: untreated cells relatively large numbers; for accumulation of DB in the cytoplasm (electron microscope): untreated cells virtually no DB; for concentration that led to optimal results (DB production): HFF infected with HCMV strain AD169
Procedure: as §1
The stock solutions were diluted 1:1000 to a final concentration of 50 μmol/l. The solutions were further diluted as follows: A: 1:1000 (50 nmol/l) 12 μml in 12 ml of MEM; B: 1:10,000 (5 nmol/l) 1.2 μml in 12 ml of MEM; C: 1:100 (500 nmol/l) 120 μml in 12 ml of MEM; D: 1,100 (500 nmol/l) 120 μml in 12 ml of MEM.
as §2, §3

SMILES	virions in the cytoplasm of the treated batch (HCMV strain TB40/E)	concentration of DB in the cytoplasm of the infected cells (electron microscope) (HCMV strain TB40/E)	concentration that led to optimal results (DB production) (HCMV strain TB40/E)	concentration that led to good results (DB production) (clinical HCMV isolate)	infectious virus particles in the cytoplasm of treated cells (HCMV strain AD169)	accumulation of DB in the cytoplasm (electron microscope) (HCMV strain AD169)	concentration that led to optimal results (DB production) (HCMV strain AD169)
Cc1ccc(N2CCN(C(=O)c3nc(NC(=O)Nc4ccc(OC(F)(F)F)cc4)cn3C)CC2)nc1 [substance (B), N-{1-methyl-2-[(4-(5-methyl-pyridin-2-yl)-piperazin-1-yl)carbonyl]-1H-imidazol-4-yl}-N′-[4-(trifluoromethoxy)phenyl]urea]	no virions could be detected	strong concentration of DB	300 nmol/L	300 nmol/L	no single infectious virus particle was to be found	large amounts of DB; also recorded: high concentrations of DB	5 nmol/L
COc1c(N2CCC(C(=O)O)CC2)c(F)cc2c(=O)c(C(=O)NCc3ccc(OC(F)(F)F)cc3C)cn(CC(F)(F)F)c12 [substance (C), 1-[6-fluoro-8-methoxy-3-({[2-methyl-4-(trifluoromethoxy)benzyl]amino}carbonyl)-4-oxo-1-(2,2,2-trifluoroethyl)-1,4-dihydroquinolin-7-yl]piperidine-4-carboxylic acid]	no virions could be detected	strong concentration of DB	3000 nmol/L	3000 nmol/L	no single infectious virus particle was to be found	large amounts of DB; also recorded: high concentrations of DB	500 nmol/L
N#CC1(C(=O)Nc2cc(F)cc(NS(=O)(=O)c3ccc(-c4noc(-c5cccc(N)n5)n4)cc3)c2)CC1 [substance (D), N-{3-[({4-[5-(6-aminopyridin-2yl)-1,2,4-oxadiazol-3-yl]phenyl}sulfonyl)amino]-5-fluorophenyl}-1-cyanocyclopropane carboxamide]	no virions could be detected	strong concentration of DB	30000 nmol/L	30000 nmol/L	no single infectious virus particle was to be found	large amounts of DB; also recorded: high concentrations of DB	500 nmol/L
COc1cccc(N2CCN(C3=Nc4c(F)cccc4[C@H](CC(=O)O)N3c3cc(C(F)(F)F)ccc3OC)CC2)c1 [substance (A), (4S)-{8-fluoro-2-[4-(3-methoxyphenyl)-1-piperazinyl]-3-[2-methoxy-5-(trifluoromethyl)-phenyl]-3,4-dihydro-4-quinazolinyl}acetic acid]	no virions could be detected	strong concentration of DB	300 nmol/L	300 nmol/L	no single infectious virus particle was to be found	large amounts of DB; also recorded: high concentrations of DB	50 nmol/L
